Experimental data reported in patent US9795600B2, “Method for treating abnormal β-amyloid mediated diseases” (NATIONAL TAIWAN NORMAL UNIVERSITY, priority 2014, dated 2017).
Values belong to the molecule of their own block, whether it stands above or below them.

Experiments:
[1] = system: Tet-On Aβ-GFP HEK-293 cells; assay: ROS assay in Tet-On Aβ-GFP HEK-293 cells; assay type: cell-based, human; settings: 5 μM; uninduced cells = 100%, induced untreated cells 128%
Procedure: Given that Aβ deposition causes cell death via a number of potential mechanisms including oxidative stress, the inventor also performed ROS assay with curcumin or synthetic indolylquinoline compounds 1, 2, 6 and 7 treatment (5 μM).

[2] = system: Tet-On Aβ-GFP HEK-293 cells; assay: Tet-On Aβ-GFP HEK-293 cell assay (GFP fluorescence, HCA); assay type: cell-based, human; settings: 8 hr pretreatment, Dox 64 hr, untreated cells = 100%
Description: For cell assay, we used a HEK-293 cell clone (human embryonic kidney cells) with Tet-On Aβ-GFP expression as a screening platform. GFP fluorescence was used to reflect Aβ aggregation status as Aβ aggregated rapidly to cause the fused GFP misfolded. Inhibition of Aβ aggregation may improve GFP misfolding, leading to increasing fluorescence on Aβ-GFP expressing cells. Tet-On Aβ-GFP HEK-293 cells were pretreated with different concentrations of compounds 1, 2, 6, 7 and curcumin for 8 hr before inducing Aβ-GFP expression. Then doxycycline (Dox) (10 μM) was added to the medium for 64 hr to induce Aβ-GFP expression, and GFP fluorescence was assessed by a high-content analysis (HCA) system (ImageXpressMICRO, available from Molecular Devices). To normalize, the relative GFP fluorescence of untreated cells (untreated with compounds 1, 2, 6 and 7, and curcumin) is set as 100%. *, P<0.05 as compared to the untreated cells; #, P<0.05 as compared to the same concentration curcumin-treated cells (n=3).

[3] = system: Tet-On Aβ-GFP SH-SY5Y cells; assay: Neurite outgrowth in Tet-On Aβ-GFP SH-SY5Y cells (TUBB3 immunostaining, HCA); assay type: cell-based, human; settings: 5 μM; Dox 6 days; uninduced cells = 100%, induced untreated cells 87%
Procedure: Tet-On Aβ human neuroblastoma SH-SY5Y cells were used to examine the neuroprotective potential of the compounds of the present invention. Tet-On Aβ-GFP SH-SY5Y cells were plated into 24-well plates with 10 μM retinoic acid (RA), grown for 24 hr and treated with tested indolylquinoline compounds 1, 2, 6 and 7 (5 μM) for 8 hr. Then doxycycline (10 μM) was added to the medium to for 6 days. Neurite outgrowth was assessed after TUBB3 immunostaining, and examined with the HCA system. The result is shown in FIG. 5, wherein the relative neurite outgrowth of uninduced cells (untreated with Dox) is set as 100%. *, P<0.05 between induced vs. uninduced cells or compound-treated vs. untreated cells (n=3).

[4] = target: T1, Trx-His-Aβ protein (Homo sapiens, UniProt P05067); assay: Trx-His-Aβ biochemical assay (thioflavin T staining); settings: Trx-His-Aβ 10 μM, 37° C., 48 hr, Trx-His-Aβ with 2 days' incubation = 100%
T1 construct: the inventors overexpressed Trx-His tagged Aβ construct in E. coli; made in house; host or cells: E. coli
Procedure: Aggregation of β-amyloid (Aβ) was considered as target for intervention. For the biochemical assay, the inventors overexpressed Trx-His tagged Aβ construct in E. coli. After metal-affinity chromatography purification, the misfolded Trx-His-Aβ proteins can be identified by thioflavin T staining assay. The fluorescent intensity is increased after thioflavin T binds misfolded Trx-His-Aβ protein, and thus the misfolding level of Trx-His-Aβ protein can be measured. […] Then thioflavin T (10 μM) was added for 5 min and fluorescence analyzed on a microplate reader (excitation: 420 nm, emission: 485 nm). To normalize, the relative thioflavin T fluorescence of Trx-His-Aβ protein with 2 days' incubation at 37° C. is set as 100%. *, P<0.05 (n=3).

[5] = system: HSPB1; assay: HSPB1 expression in Aβ-GFP SH-SY5Y cells (Western blot); assay type: cell-based, human; settings: 5 μM; uninduced cells = 100%, induced untreated cells 90%
Description: The result is shown in FIG. 6, wherein the relative HSPB1 level of uninduced cells is set as 100%. *, P<0.05 between induced vs uninduced cells or compound-treated vs. untreated cells (n=3).

[6] = system: mouse hippocampal primary culture; assay: Mouse hippocampal primary culture under oligomeric Aβ toxicity; assay type: cell-based; settings: 1, 10 or 30 μM, oligomeric Aβ 1 μM, vs. Aβ alone; for total cells (DAPI staining) against oligomeric Aβ toxicity: FIG. 7(A); for mature neurons (NeuN staining) against oligomeric Aβ toxicity: FIG. 7(B); for synaptophysin level against oligomeric Aβ toxicity: FIG. 7(F); for neurite outgrowth (process, branch, length; MAP2 staining) against oligomeric Aβ toxicity: FIGS. 7(C)-(E)
Procedure: Postnatal day 0-1 mouse hippocampus was isolated for primary culture, and used to confirm the neuroprotective potential of the compounds of the present invention. Oligomeric Aβ (1 μM) was applied to the primary culture after the indolylquinoline compound (compounds 1, 2, 6 and 7) administration (1, 10, or 30 μM) at day 9. Cells were harvested 1 hr later for immunocytochemical analysis and quantitated the total cell number (as shown in FIG. 7(A), by DAPI staining), mature neuron number (as shown in FIG. 7(B), by NeuN antibody staining), neurite process (as shown in FIG. 7(C), by MAP2 antibody staining), neurite branch (as shown in FIG. 7(D), by MAP2 antibody staining), neurite length (as shown in FIG. 7(E), by MAP2 antibody staining), and synaptophysin expression level (as shown in FIG. 7(F), by synaptophysin antibody staining) In FIG. 7(A) to (F), the relative amount of cells treated with vesicle (hexafluoroisopropanol) is set as 100%. ###, P<0.001 between cells treated with Aβ and vehicle (n=3). *, P<0.05; **, P<0.01; ***, P<0.001 between cells treated with Aβ combined the compound of the present invention and Aβ alone (n=3).

[7] = 1.2˜5.0 μM, above 80% of viable cells

T1 sequence (P05067 672-713 limits assumed): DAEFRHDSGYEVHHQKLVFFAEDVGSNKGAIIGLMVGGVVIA

Structure (SMILES): COc1cc(/C=C/C(=O)CC(=O)/C=C/c2ccc(O)c(OC)c2)ccc1O [curcumin, reference compound]
- relative ROS level [1]: 86%
- relative GFP fluorescence (Aβ-GFP) ([2]; 2.5˜5.0 μM): 111˜122%
- relative neurite outgrowth [3]: 105%
- relative thioflavin T fluorescence (misfolded Trx-His-Aβ aggregation) ([4]; 5˜20 μM compound): 76˜54%
- relative HSPB1 level [5]: 123%

Structure (SMILES): CC(=O)C(=Cc1ccccc1[N+](=O)[O-])Cc1c[nH]c2ccccc12 [compound 1]
- relative GFP fluorescence (Aβ-GFP) [2, 7]: 112˜129%
- total cells (DAPI staining) against oligomeric Aβ toxicity [6]: significantly improved
- mature neurons (NeuN staining) against oligomeric Aβ toxicity [6]: significantly improved
- synaptophysin level against oligomeric Aβ toxicity [6]: significantly improved
- neurite outgrowth (process, branch, length; MAP2 staining) against oligomeric Aβ toxicity [6]: significantly improved
- relative thioflavin T fluorescence (misfolded Trx-His-Aβ aggregation) ([4]; 20 μM compound): 79%
- relative HSPB1 level [5]: 126%

Structure (SMILES): CC(=O)C(=Cc1ccccc1[N+](=O)[O-])Cc1c(C)[nH]c2ccccc12 [compound 2]
- relative GFP fluorescence (Aβ-GFP) ([2]; 1.2˜2.5 μM, above 80% of viable cells): 107˜120%
- total cells (DAPI staining) against oligomeric Aβ toxicity [6]: significantly improved
- mature neurons (NeuN staining) against oligomeric Aβ toxicity [6]: significantly improved
- synaptophysin level against oligomeric Aβ toxicity [6]: significantly improved
- neurite outgrowth (process, branch, length; MAP2 staining) against oligomeric Aβ toxicity [6]: significantly improved
- relative thioflavin T fluorescence (misfolded Trx-His-Aβ aggregation) ([4]; 10˜20 μM compound): 74˜70%
- relative HSPB1 level [5]: 112%

More lines, main results first:

- relative thioflavin T fluorescence (misfolded Trx-His-Aβ aggregation) ([4]; 5˜20 μM compound): 90˜71%
Structure (SMILES): CCc1cccc2c(CC(=Cc3ccccc3[N+](=O)[O-])C(C)=O)c[nH]c12 [compound 6]
- relative GFP fluorescence (Aβ-GFP) [2, 7]: 107˜130%
- total cells (DAPI staining) against oligomeric Aβ toxicity [6]: significantly improved
- mature neurons (NeuN staining) against oligomeric Aβ toxicity [6]: significantly improved
- synaptophysin level against oligomeric Aβ toxicity [6]: significantly improved
- neurite outgrowth (process, branch, length; MAP2 staining) against oligomeric Aβ toxicity [6]: significantly improved
- relative HSPB1 level [5]: 116%

- relative thioflavin T fluorescence (misfolded Trx-His-Aβ aggregation) ([4]; 20 μM compound): 84%
Structure (SMILES): Cc1nc2ccccc2cc1Cc1c[nH]c2ccccc12 [compound 7]
- relative GFP fluorescence (Aβ-GFP) ([2]; 1.2 μM, above 80% of viable cells): 105%
- total cells (DAPI staining) against oligomeric Aβ toxicity [6]: significantly improved
- mature neurons (NeuN staining) against oligomeric Aβ toxicity [6]: significantly improved
- synaptophysin level against oligomeric Aβ toxicity [6]: significantly improved
- neurite outgrowth (process, branch, length; MAP2 staining) against oligomeric Aβ toxicity [6]: significantly improved
- relative HSPB1 level [5]: 117%
